Data published in US20210380548A1, “Fused [1,2,4]Thiadiazine Derivatives Which Act as KAT Inhibitors of the MYST Family” (CTxT Pty Limited, priority 2017, published 2021).

What was measured:
[1] = tested on: histone H2A.Z Lysine 7 acetylation (TIP60 mediated) in U2OS cells; experiment: H2A.Z Lysine 7 Acetylation Biomarker Assay (96 well, U2OS); format: cell-based; details: Homo sapiens, Table 7, H2A.Z K7ac, 24 hours incubation, serum free medium
Description: To discover a global TIP60/KAT5 cellular biomarker useful for monitoring PD responses of TIP60 inhibition in vitro and in vivo, various histone modifications were assessed for TIP60 dependence through genetic (TIP60 siRNA and CRISPR/Cas9) or TIP60 pharmacological inhibition. This analysis clearly identified acetylation of the histone variant H2A.Z at Lysine 7 (H2A.ZK7ac) as a global histone mark which is TIP60-dependent in both human and mouse cells. To a lesser extent, TIP60 also acetylated lysine 4 and 11 of H2A.Z.
Compounds may be tested for their ability to inhibit the histone H2A.Z Lysine 7 acetylation biomarker (which is TIP60 mediated) in the following assay:
The cell line U2OS was seeded at a density of 9,000 cells per well in 96 well optical quality tissue culture plates in RPMI medium and 10% foetal bovine serum, and allowed to adhere for 24 hours under standard culture conditions (37 degree Celsius, 5% CO2). At the end of this period the cells were washed with serum free medium. Compound dilutions prepared in DMSO were added to the serum free medium, with negative control wells reserved for treatment with DMSO only and positive controls receiving a potent inhibitor compound (e.g. Example 146) at 20 μM concentration. After incubation for 24 hours, the cells were fixed with 3.7% formaldehyde in PBS for 20 minutes at room temperature, washed with phosphate buffer saline containing 0.1% Tween 20 and blocked with Odyssey blocking buffer (LI-COR, Lincoln, Nebr.) containing 0.1% TritonX100. Anti-H2A.Z K7ac specific antibody (Abcam) in Odyssey blocking buffer containing 0.1% Tween 20 was added and incubated for 14 hours at 4 degree Celsius. After washing, a secondary antibody labelled with Alexa647 dye (LifeTechnologies) and Hoechst 33342 (10 μM, SigmaAldrich) were added for 1 hour incubation. Plates were washed and read on a PerkinElmer Phenix high content imaging platform. Using a Columbus image analysis pipeline, individual nuclei were located by Hoechst 33342 stain and the acetylation level was calculated from the Alexa647-related intensity in the same area. The resulting mean intensity per cell was directly converted to percent inhibition relative to controls on the same plate and the data fitted against a four-parameter logistic model to determine the 50% inhibitory concentration (IC50).

HBO-KAT7 = target: T1, HBO-KAT7 (Homo sapiens, UniProt O95251); experiment: Revised Acetyltransferase Biochemical Assay, KAT7; details: Table 9 (HBO-KAT7), 1 μM Acetyl coenzyme A
T1 construct: encoding amino acid residues 325 to 611 (Uniprot 095251-1) of human KAT7; made in house; host or cells: E. coli BL21 DE3 RIL

TIP60-KAT5 = target: T2, TIP60-KAT5 (Homo sapiens, UniProt Q92993); experiment: Acetyltransferase biochemical assay (AlphaScreen), KAT5; details: Table 1 (TIP60-KAT5); 0.4 μM Acetyl coenzyme A, histone H4, 10 nM enzyme
T2 construct: encoding amino acid residues 2 to 461 (Uniprot Q92993-2) of human KAT5 isoform; made in house; host or cells: E. coli BL21 DE3

QKF-KAT6B = target: T3, QKF-KAT6B (Homo sapiens, UniProt Q8WYB5); experiment: Acetyltransferase biochemical assay (AlphaScreen), KAT6B; details: Table 5 (QKF-KAT6B); 0.4 μM Acetyl coenzyme A, histone H3.1, 8 nM enzyme
T3 construct: purchased SignalChem K315-381BG
T3 sequence (Q8WYB5 whole entry): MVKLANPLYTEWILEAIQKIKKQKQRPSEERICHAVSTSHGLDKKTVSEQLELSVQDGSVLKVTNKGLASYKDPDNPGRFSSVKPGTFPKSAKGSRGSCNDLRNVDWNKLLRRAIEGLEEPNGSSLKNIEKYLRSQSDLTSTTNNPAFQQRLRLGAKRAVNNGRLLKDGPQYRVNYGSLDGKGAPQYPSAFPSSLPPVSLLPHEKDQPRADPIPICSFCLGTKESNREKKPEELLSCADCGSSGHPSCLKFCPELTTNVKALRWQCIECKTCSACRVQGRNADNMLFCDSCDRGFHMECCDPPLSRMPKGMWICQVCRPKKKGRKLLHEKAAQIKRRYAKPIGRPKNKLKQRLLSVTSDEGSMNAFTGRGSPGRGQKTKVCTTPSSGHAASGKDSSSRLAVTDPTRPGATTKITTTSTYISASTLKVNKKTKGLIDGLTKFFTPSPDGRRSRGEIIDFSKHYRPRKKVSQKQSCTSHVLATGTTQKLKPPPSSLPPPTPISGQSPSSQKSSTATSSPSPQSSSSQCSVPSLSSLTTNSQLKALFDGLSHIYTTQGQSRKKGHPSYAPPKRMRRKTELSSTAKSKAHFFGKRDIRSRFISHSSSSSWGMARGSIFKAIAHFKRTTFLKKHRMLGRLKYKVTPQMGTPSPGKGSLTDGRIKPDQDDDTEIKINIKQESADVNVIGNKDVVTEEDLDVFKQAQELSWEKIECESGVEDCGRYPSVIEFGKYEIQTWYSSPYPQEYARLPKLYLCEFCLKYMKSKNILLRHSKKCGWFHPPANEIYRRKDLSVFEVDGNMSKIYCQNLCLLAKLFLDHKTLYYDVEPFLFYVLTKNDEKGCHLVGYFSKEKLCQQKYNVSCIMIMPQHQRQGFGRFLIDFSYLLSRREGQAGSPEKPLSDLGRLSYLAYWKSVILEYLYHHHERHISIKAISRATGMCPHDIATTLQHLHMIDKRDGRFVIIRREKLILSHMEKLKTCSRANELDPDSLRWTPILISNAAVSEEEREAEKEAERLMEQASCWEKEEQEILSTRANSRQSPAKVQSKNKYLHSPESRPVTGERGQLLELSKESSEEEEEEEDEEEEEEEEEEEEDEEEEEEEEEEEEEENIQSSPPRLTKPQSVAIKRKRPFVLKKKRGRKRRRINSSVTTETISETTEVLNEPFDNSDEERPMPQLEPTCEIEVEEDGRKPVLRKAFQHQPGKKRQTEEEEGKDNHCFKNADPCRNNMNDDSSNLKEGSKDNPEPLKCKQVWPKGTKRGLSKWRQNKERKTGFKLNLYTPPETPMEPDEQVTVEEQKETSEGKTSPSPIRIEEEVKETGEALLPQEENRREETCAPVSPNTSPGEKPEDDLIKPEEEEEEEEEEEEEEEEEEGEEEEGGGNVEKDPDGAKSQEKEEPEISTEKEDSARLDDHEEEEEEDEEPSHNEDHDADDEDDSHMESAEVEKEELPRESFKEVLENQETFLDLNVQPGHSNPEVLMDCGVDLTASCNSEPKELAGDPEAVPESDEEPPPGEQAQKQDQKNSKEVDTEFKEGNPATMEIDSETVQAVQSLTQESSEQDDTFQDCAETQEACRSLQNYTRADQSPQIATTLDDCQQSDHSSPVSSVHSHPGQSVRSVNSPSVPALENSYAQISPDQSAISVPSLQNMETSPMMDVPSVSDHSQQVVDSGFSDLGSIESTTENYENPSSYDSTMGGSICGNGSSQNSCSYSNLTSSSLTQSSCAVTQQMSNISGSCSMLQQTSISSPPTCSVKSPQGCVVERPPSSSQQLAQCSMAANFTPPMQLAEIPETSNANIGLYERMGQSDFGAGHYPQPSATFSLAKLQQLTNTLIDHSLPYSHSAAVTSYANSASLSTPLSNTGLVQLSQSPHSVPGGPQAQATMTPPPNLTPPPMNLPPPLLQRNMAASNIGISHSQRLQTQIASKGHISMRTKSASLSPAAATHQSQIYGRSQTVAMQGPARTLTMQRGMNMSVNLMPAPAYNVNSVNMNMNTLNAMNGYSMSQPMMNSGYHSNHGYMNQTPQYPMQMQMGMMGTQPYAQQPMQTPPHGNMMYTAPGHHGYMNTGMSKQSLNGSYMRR

T2 sequence (Q92993 2-461 isoform Q92993-2): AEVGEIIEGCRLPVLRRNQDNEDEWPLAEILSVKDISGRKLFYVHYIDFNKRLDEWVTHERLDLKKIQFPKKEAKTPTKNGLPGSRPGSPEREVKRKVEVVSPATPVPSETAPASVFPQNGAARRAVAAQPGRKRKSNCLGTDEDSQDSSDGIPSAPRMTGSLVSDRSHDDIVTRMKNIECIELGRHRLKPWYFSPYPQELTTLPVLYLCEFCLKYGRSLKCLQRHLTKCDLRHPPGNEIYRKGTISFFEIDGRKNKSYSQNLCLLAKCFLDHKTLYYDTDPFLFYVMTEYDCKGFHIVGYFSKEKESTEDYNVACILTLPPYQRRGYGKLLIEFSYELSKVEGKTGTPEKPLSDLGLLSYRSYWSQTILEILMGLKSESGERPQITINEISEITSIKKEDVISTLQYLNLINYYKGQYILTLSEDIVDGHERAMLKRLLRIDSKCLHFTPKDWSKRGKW
T1 sequence (O95251 with tags, fused parts or gaps): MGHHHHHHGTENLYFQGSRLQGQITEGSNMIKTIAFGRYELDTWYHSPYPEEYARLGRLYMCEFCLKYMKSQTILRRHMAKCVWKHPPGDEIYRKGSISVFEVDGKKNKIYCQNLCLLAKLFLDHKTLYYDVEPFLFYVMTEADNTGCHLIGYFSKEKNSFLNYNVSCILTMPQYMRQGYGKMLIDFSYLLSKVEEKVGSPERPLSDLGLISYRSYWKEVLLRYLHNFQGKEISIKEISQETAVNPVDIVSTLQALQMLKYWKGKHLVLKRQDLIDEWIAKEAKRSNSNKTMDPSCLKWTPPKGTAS

| IC50 [1] | IC50 (HBO-KAT7) | IC50 (TIP60-KAT5) | IC50 (QKF-KAT6B) | Structure (SMILES) |
| --- | --- | --- | --- | --- |
| 2180 nM | 76 nM | 286 nM | – | O=C(NCC(c1ccccc1)c1ncco1)C1=Nc2ccc(Br)cc2S(=O)(=O)N1 (stereo not shown) [Example 1, 7-Bromo-N-(2-(oxazol-2-yl)-2-phenylethyl)-2H-benzo[e][1,2,4]thiadiazine-3-carboxamide 1,1-dioxide] |
| 30000 nM | 1080 nM | 9710 nM | 122 nM | O=C(NCC(c1ccccc1)c1ncco1)C1=Nc2ccccc2S(=O)(=O)N1 (stereo not shown) [Example 46, N-(2-(oxazol-2-yl)-2-phenylethyl)-2H-benzo[e][1,2,4]thiadiazine-3-carboxamide 1,1-dioxide] |
| 2060 nM | 201 nM | 327 nM | – | O=C(NCCc1ccccc1-n1nccn1)C1=Nc2ccc(I)cc2S(=O)(=O)N1 [Example 60, N-(2-(2H-1,2,3-triazol-2-yl)phenethyl)-7-iodo-2H-benzo[e][1,2,4]thiadiazine-3-carboxamide 1,1-dioxide] |
| 10000 nM | 74 nM | 209 nM | – | O=C(NCCc1ccccc1OC(F)F)C1=Nc2ccc(I)cc2S(=O)(=O)N1 [Example 91] |
